Assay results from patent US20220133717A1, “RABEXIMOD IN THE TREATMENT OF RHEUMATOID ARTHRITIS” (CYXONE AB, priority 2020, published 2022).
Read-outs that look alike come from different tables or passages of the source.

Test: Phase II clinical trial: pharmacokinetics of plasma Rabeximod (PK subgroup)
Type: in vivo, human
Conditions: for half-life / Tmax / AUC(0-t) / AUC / Cmax: human, plasma, oral
From the text: A total of 9 visits occurred over the course of the study (screening, randomisation [Day 0, baseline]. Day 1, and Weeks 2, 4, 6, 8, 12 and 16). The Day 1 visit was included for a subgroup of 36 patients (PK/PD subgroup) who were selected at specified study centres to also participate in the PK/PD aspect of the study. Individual patient duration in the study was approximately 126 days (a 14 day screening period, an 84 day treatment period [12 weeks], and a 28 day [4 week] follow-up period).
In addition to standard efficacy and safety assessments, it was planned that 40 patients in selected study centres would have blood draws at the beginning of the study (Day 1) and at the end of the study (Week 12) to assess the PK of Rabeximod. The actual number of patients who participated in the PK aspect of the study was 36. The ACR20, ACR50 and ACR70 are assessments of RA improvement. The mHAQ is a validated instrument used to assess patient satisfaction in activity of daily living. It was planned to use the Original DAS as the outcome measure, but this was replaced with DAS28 because it is used more frequently in therapeutic studies have been used in many RA studies.
[…] The study drug was to be taken at approximately the same time every morning, starting from Day 1. For the PK/PD subgroup, on the day when the PK/PD sampling was scheduled, study drug was to be taken after the first blood sampling. The study design of the treatment phase was double-blind. All study drug, including placebo, were identical in size, shape, colour and taste, thus allowing double-blind conditions to be maintained. All study personnel and patients remained blinded to the drug treatment assignments. Patients self-administered all doses of study drug end were instructed to return all residual, unused and empty packaging to the clinic at scheduled visits. If dosing compliance was not maintained at between 80% and 120% then the patient was to be withdrawn from the study. Patients in the PK/PD subgroup were to take study drug at the clinic on Day 1 and at Week 12. Compliance was monitored through drug accountability. The Investigator, or designee, maintained an inventory record of study drug received, dispensed, administered and returned to assure the Sponsor that study drug was not dispensed to any person who was not a patient under the terms and conditions set forth in the protocol. Clinically significant protocol deviations were identified based on criteria determined by the project leader to be clinically relevant. Deviations were reported on the CRFs. Additionally, upon completion of the study, certain deviations (e.g., visit window deviations) were identified through the use of SAS® programming.
The PK assessment of Rabeximod was performed in a subgroup of 36 patients during the study.
Concentration-time profiles for plasma Rabeximod following single (Day 1) and repeated administration (Week 12) of Rabeximod were determined.

SMILES: Cc1cc2nc3c4cc(Cl)ccc4n(CC(=O)NCCN(C)C)c3nc2cc1C [Rabeximod, 9-Chloro-2,3-dimethyl-6-(N,N-dimethylaminoethylamino-2-oxoethyl)-6H-indolo-[2,3-b]quinoxaline]
- impact of methotrexate on the kinetics of Rabeximod (co-administered stable dose of methotrexate): does not appear to have an impact
- increase of geometric mean AUC0-τ, AUC0-t and Cmax with dose (dose range 6.25 to 37.5 mg, with stable dose of methotrexate): approximately dose-proportional
- half-life (6.25 mg, Week 12, 6.25 mg, read-out: geometric mean apparent terminal half-life (t1/2) (converted)): 81.5 h
- half-life (15 mg, Week 12, 15 mg, read-out: geometric mean apparent terminal half-life (t1/2) (converted)): 77.1 h
- half-life (37.5 mg, Week 12, 37.5 mg, read-out: geometric mean apparent terminal half-life (t1/2) (converted)): 111 h
- Tmax (37.5 mg, single administration at 6.25, 15 and 37.5 mg, across all dose levels, with methotrexate, read-out: Tmax (median estimates)): 5 to 8 h
- Tmax (repeated administration, Week 12, read-out: Tmax (median estimates)): 2 to 4 h
- AUC(0-t) (po, 6.25 mg, Week 12, 6.25 mg once daily, RA patients, with methotrexate, read-out: AUC0-t, Median): 2810 ng·h/mL
- half-life (po, 6.25 mg, Week 12, 6.25 mg once daily, RA patients, with methotrexate, read-out: T1/2 (apparent terminal half-life), Geometric mean (converted)): 81.5 h
- half-life (po, 6.25 mg, Week 12, 6.25 mg once daily, RA patients, with methotrexate, read-out: T1/2 (apparent terminal half-life), Median (converted)): 86.6 h
- AUC (po, 6.35 mg, Day 1 (equivalent to AUC0-t), 6.35 mg, RA patients, with methotrexate, read-out: AUC0-τ, Geometric mean): 112 ng·h/mL
- AUC (po, 6.35 mg, Day 1 (equivalent to AUC0-t), 6.35 mg, RA patients, with methotrexate, read-out: AUC0-τ, Median): 107 ng·h/mL
- Cmax (po, 6.35 mg, Day 1, 6.35 mg, RA patients, with methotrexate, read-out: Cmax, Geometric mean): 7.92 ng/mL
- Cmax (po, 6.35 mg, Day 1, 6.35 mg, RA patients, with methotrexate, read-out: Cmax, Median): 7.05 ng/mL
- Tmax (po, 6.35 mg, Day 1, 6.35 mg, RA patients, with methotrexate, read-out: Tmax, Median): 8.03 h
- AUC(0-t) (po, 6.35 mg, Week 12, 6.35 mg once daily, RA patients, with methotrexate, read-out: AUC0-t, Geometric mean): 2530 ng·h/mL
- AUC (po, 6.35 mg, Week 12, 6.35 mg once daily, RA patients, with methotrexate, read-out: AUC0-τ, Geometric mean): 587 ng·h/mL
- AUC (po, 6.35 mg, Week 12, 6.35 mg once daily, RA patients, with methotrexate, read-out: AUC0-τ, Median): 710 ng·h/mL
- Cmax (po, 6.35 mg, Week 12, 6.35 mg once daily, RA patients, with methotrexate, read-out: Cmax, Geometric mean): 31 ng/mL
- Cmax (po, 6.35 mg, Week 12, 6.35 mg once daily, RA patients, with methotrexate, read-out: Cmax, Median): 37.5 ng/mL
- Tmax (po, 6.35 mg, Week 12, 6.35 mg once daily, RA patients, with methotrexate, read-out: Tmax, Median): 2.17 h
- AUC (po, 15 mg, Day 1 (equivalent to AUC0-t), 15 mg, RA patients, with methotrexate, read-out: AUC0-τ, Geometric mean): 282 ng·h/mL
- AUC (po, 15 mg, Day 1 (equivalent to AUC0-t), 15 mg, RA patients, with methotrexate, read-out: AUC0-τ, Median): 254 ng·h/mL
- Cmax (po, 15 mg, Day 1, 15 mg, RA patients, with methotrexate, read-out: Cmax, Geometric mean): 18.3 ng/mL
- Cmax (po, 15 mg, Day 1, 15 mg, RA patients, with methotrexate, read-out: Cmax, Median): 16 ng/mL
- Tmax (po, 15 mg, Day 1, 15 mg, RA patients, with methotrexate, read-out: Tmax, Median): 6.04 h
- AUC(0-t) (po, 15 mg, Week 12, 15 mg once daily, RA patients, with methotrexate, read-out: AUC0-t, Geometric mean): 4970 ng·h/mL
- AUC(0-t) (po, 15 mg, Week 12, 15 mg once daily, RA patients, with methotrexate, read-out: AUC0-t, Median): 5590 ng·h/mL
- AUC (po, 15 mg, Week 12, 15 mg once daily, RA patients, with methotrexate, read-out: AUC0-τ, Geometric mean): 1530 ng·h/mL
- AUC (po, 15 mg, Week 12, 15 mg once daily, RA patients, with methotrexate, read-out: AUC0-τ, Median): 1480 ng·h/mL
- Cmax (po, 15 mg, Week 12, 15 mg once daily, RA patients, with methotrexate, read-out: Cmax, Geometric mean): 79.7 ng/mL
- Cmax (po, 15 mg, Week 12, 15 mg once daily, RA patients, with methotrexate, read-out: Cmax, Median): 91.6 ng/mL
- half-life (po, 15 mg, Week 12, 15 mg once daily, RA patients, with methotrexate, read-out: T1/2 (apparent terminal half-life), Geometric mean (converted)): 77.1 h
- half-life (po, 15 mg, Week 12, 15 mg once daily, RA patients, with methotrexate, read-out: T1/2 (apparent terminal half-life), Median (converted)): 77.6 h
- Tmax (po, 15 mg, Week 12, 15 mg once daily, RA patients, with methotrexate, read-out: Tmax, Median): 4 h
- AUC (po, 37.5 mg, Day 1 (equivalent to AUC0-t), 37.5 mg, RA patients, with methotrexate, read-out: AUC0-τ, Geometric mean): 689 ng·h/mL
- AUC (po, 37.5 mg, Day 1 (equivalent to AUC0-t), 37.5 mg, RA patients, with methotrexate, read-out: AUC0-τ, Median): 697 ng·h/mL
- Cmax (po, 37.5 mg, Day 1, 37.5 mg, RA patients, with methotrexate, read-out: Cmax, Geometric mean): 41.7 ng/mL
- Cmax (po, 37.5 mg, Day 1, 37.5 mg, RA patients, with methotrexate, read-out: Cmax, Median): 41.8 ng/mL
- Tmax (po, 37.5 mg, Day 1, 37.5 mg, RA patients, with methotrexate, read-out: Tmax, Median): 5.03 h
- AUC(0-t) (po, 37.5 mg, Week 12, 37.5 mg once daily, RA patients, with methotrexate, read-out: AUC0-t, Geometric mean): 15900 ng·h/mL
- AUC(0-t) (po, 37.5 mg, Week 12, 37.5 mg once daily, RA patients, with methotrexate, read-out: AUC0-t, Median): 17500 ng·h/mL
- AUC (po, 37.5 mg, Week 12, 37.5 mg once daily, RA patients, with methotrexate, read-out: AUC0-τ, Geometric mean): 4040 ng·h/mL
- AUC (po, 37.5 mg, Week 12, 37.5 mg once daily, RA patients, with methotrexate, read-out: AUC0-τ, Median): 4540 ng·h/mL
- Cmax (po, 37.5 mg, Week 12, 37.5 mg once daily, RA patients, with methotrexate, read-out: Cmax, Geometric mean): 218 ng/mL
- Cmax (po, 37.5 mg, Week 12, 37.5 mg once daily, RA patients, with methotrexate, read-out: Cmax, Median): 238 ng/mL
- half-life (po, 37.5 mg, Week 12, 37.5 mg once daily, RA patients, with methotrexate, read-out: T1/2 (apparent terminal half-life), Geometric mean (converted)): 111 h
- half-life (po, 37.5 mg, Week 12, 37.5 mg once daily, RA patients, with methotrexate, read-out: T1/2 (apparent terminal half-life), Median (converted)): 107 h
- Tmax (po, 37.5 mg, Week 12, 37.5 mg once daily, RA patients, with methotrexate, read-out: Tmax, Median): 3.99 h
